# Reference: US8044071B2, “Method for reducing side effects of CB2 receptor agonist therapy using a combination of a selective CB2 receptor agonist and a selective CB1 receptor antagonist” (Abbott Laboratories, priority 2007, dated 2011)
# pKi: −log10 of the molar value. Like-named read-outs stand apart in the source and are kept apart here.
# Legend:
# [1] = target: T1, human CB2 receptors (Homo sapiens, UniProt P34972); test: CB2 radioligand binding assay ([3H]CP-55,940 competition)
# T1 construct: expressed in transfected cells
# T1 sequence (P34972 whole entry): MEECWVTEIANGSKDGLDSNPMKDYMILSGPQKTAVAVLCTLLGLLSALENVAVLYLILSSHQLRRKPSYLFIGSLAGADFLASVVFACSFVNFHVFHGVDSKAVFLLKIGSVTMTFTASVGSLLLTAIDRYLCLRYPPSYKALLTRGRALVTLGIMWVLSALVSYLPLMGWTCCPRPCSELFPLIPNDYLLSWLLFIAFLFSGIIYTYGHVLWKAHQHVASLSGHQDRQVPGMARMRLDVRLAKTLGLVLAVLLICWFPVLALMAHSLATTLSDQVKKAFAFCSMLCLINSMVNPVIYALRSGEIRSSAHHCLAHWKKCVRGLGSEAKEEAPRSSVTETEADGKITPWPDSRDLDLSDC
# Description: (§1) To determine the selectivity (Ki) of the compounds of the present application for CB2 receptors relative to CB1 receptors, radioligand binding assays are performed, which are described herein.
# For CB2 radioligand binding assays, HEK293 cells stably expressing human CB2 receptors were grown until a confluent monolayer was formed. Briefly, the cells were harvested and homogenized in TE buffer (50 mM Tris-HCl, 1 mM MgCl2, and 1 mM EDTA) using a polytron for 2×10 second bursts in the presence of protease inhibitors, followed by centrifugation at 45,000×g for 20 minutes. The final membrane pellet was re-homogenized in storage buffer (50 mM Tris-HCl, 1 mM MgCl2, and 1 mM EDTA and 10% sucrose) and frozen at −78° C. until used. Saturation binding reactions were initiated by the addition of membrane preparation (protein concentration of 5 μg/well for human CB2) into wells of a deep well plate containing [^3H]CP-55,940 (120 Ci/mmol, a nonselective CB agonist commercially available from Tocris) in assay buffer (50 mM Tris, 2.5 mM EDTA, 5 mM MgCl2, and 0.5 mg/mL fatty acid free BSA, pH 7.4). After 90 min incubation at 30° C., binding reaction was terminated by the addition of 300 μl/well of cold assay buffer followed by rapid vacuum filtration through a UniFilter-96 GF/C filter plates (pre-soaked in 1 mg/mL BSA for 2 hours). The bound activity was counted in a TopCount using Microscint-20. […]
# [2] = target: T2, human CB1 (Homo sapiens, UniProt P21554); test: CB1 radioligand binding assay ([3H]CP-55,940 competition)
# T2 construct: purchased Perkin Elmer; host or cells: HEK293 membranes
# T2 sequence (P21554 whole entry): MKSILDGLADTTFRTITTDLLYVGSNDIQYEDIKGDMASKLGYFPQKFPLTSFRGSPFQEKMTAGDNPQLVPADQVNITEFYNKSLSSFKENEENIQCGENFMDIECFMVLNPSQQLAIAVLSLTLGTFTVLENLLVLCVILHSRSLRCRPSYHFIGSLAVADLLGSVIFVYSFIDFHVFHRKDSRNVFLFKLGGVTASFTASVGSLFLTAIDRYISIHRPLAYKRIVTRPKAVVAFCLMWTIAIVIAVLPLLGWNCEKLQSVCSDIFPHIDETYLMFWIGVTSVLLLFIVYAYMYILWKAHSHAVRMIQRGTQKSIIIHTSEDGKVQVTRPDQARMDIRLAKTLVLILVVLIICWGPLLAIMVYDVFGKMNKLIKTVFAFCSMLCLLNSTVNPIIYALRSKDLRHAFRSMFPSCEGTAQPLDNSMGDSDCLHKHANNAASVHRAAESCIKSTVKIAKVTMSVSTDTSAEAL
# Description: as §1
# For CB1 radioligand binding assay HEK293 human CB1 membranes were purchased from Perkin Elmer. Binding was initiated by the addition of membranes (8-12 μg per well) into wells (Scienceware 96-well DeepWell plate, VWR, West Chester, Pa.) containing [^3H]CP-55,940 (120 Ci/mmol, Perkin Elmer, Boston, Mass.) and a sufficient volume of assay buffer (50 mM Tris, 2.5 mM EDTA, 5 mM MgCl2, and 0.5 mg/mL fatty acid free BSA, pH 7.4) to bring the total volume to 250 μL. After incubation (30° C. for 90 minutes), binding was terminated by the addition of 300 μL per well of cold assay buffer and rapid vacuum filtration (FilterMate Cell Harvester, Perkin Elmer, Boston, Mass.) through a UniFilter-96 GF/C filter plate (Perkin Elmer, Boston, Mass.) (pre-soaked in 0.3% PEI at least 3 hours), followed by five washes with cold assay buffer. The bound activity was counted in the TopCount using Microscint-20 (both from Perkin Elmer, Boston, Mass.). Competition experiments were conducted with 1 nM [^3H]CP-55,940 and five concentrations (1 nM to 10 μM) of displacing ligands. The addition of 10 μM unlabeled CP-55,940 (Tocris, Ellisville, Mo.) was used to assess nonspecific binding.
# [3] = tested on: spontaneous locomotor activity; test: Measurement of locomotor activity (open field, horizontal activity); format: in vivo; conditions: rat; for horizontal locomotor activity, agonist after rimonabant: 30 μmol/kg i.p., rimonabant 30 μmol/kg i.p. 15 min before
# Description: Adverse effects may also be determined by the Measurement of Locomotor Activity. Spontaneous activity is assessed in an open-field environment (42 (length)×42 (base)×40 cm (height); Piper Plastics, Libertyville, Ill.) situated inside Versamax/Digiscan monitors, each equipped with infrared sensors (AccuScan Instruments, Inc., Columbus, Ohio) in a dimly illuminated test room. Following administration of test compounds or vehicle control, rats are individually placed into the test chambers and horizontal (locomotion) activity is recorded for 30 min. A reduction in horizontal motor activity for a test compound compared to the effect of vehicle is a measure of adverse effects; the greater the reduction in activity, the greater the adverse effect. Data is analyzed by ANOVA followed by Fisher's Protected Least significant difference (PLSD) analysis as a post hoc comparison (JMP statistic database; SAS Institute, Inc., Cary, N.C.). A p<0.05 was considered significant.
# These effects also indicate that the reduction in locomotor activity by CB2 agonist B results from its residual activation of the CB1 receptor.
# Using the locomotor activity assay, the effects of CB2 agonist A were evaluated after the administration of vehicle or the CB1 antagonist rimonabant. This effect was compared with the administration of vehicle after the administration of vehicle or the CB1 antagonist rimonabant. A first dose, consisting of CB1 antagonist rimonabant (30 μmol/kg i.p.) or a vehicle (5% DMSO/PEG), was administered 15 minutes before a second dose, consisting of administration of CB2 agonist A (30 μmol/kg i.p.) or vehicle. Locomotor testing was conducted 30 minutes after administration of the second dose, either CB2 agonist A or vehicle. […] CB2 agonist A administered after vehicle decreased horizontal locomotor activity by 91%.
SMILES,pKi [1],pKi [2],"decrease of horizontal locomotor activity, agonist after vehicle ([3]; 30 μmol/kg i.p. after vehicle, tested 30 min after second dose) [%]","horizontal locomotor activity, agonist after rimonabant [3]","horizontal locomotor activity, agonist after rimonabant ([3]; listed as CB2 agonist A)","pKi ([1]; HEK293 membranes expressing human CB2, 0.5 nM [3H]CP-55,940, read-out: Ki for CB2 receptors)","pKi ([2]; HEK293 human CB1 membranes, 1 nM [3H]CP-55,940, read-out: Ki for CB1 receptors)","spontaneous locomotor activity, agonist alone ([3]; 30 and 45 μmol/kg i.p., tested 30 min after administration)","spontaneous locomotor activity, agonist after rimonabant ([3]; rimonabant 30 μmol/kg i.p. 15 min before CB2 agonist B)"
"CCCCn1cc(C(C)(C)C)s/c1=N\C(=O)c1cc(Cl)ccc1OC [compound A, (Z)—N-(5-tert-butyl-3-butylthiazol-2(3H)-ylidene)-5-chloro-2-methoxybenzamide]",8.74,5.44,91,much reduced side effects,able to block said decrease,–,–,–,–
"COCCn1c(C)c(C)s/c1=N\C(=O)C1C(C)(C)C1(C)C [compound B, (Z)—N-(3-(2-methoxyethyl)-4,5-dimethylthiazol-2(3H)-ylidene)-2,2,3,3-tetramethylcyclopropanecarboxamide]",–,–,–,–,–,9.22,6.56,significantly reduces spontaneous locomotor activity,reduction in locomotor activity was eliminated
